Measurements as given in patent publication US6965021B2, “Feedback-resistant pyruvate carboxylase gene from corynebacterium” (Archer-Daniels-Midland Company, priority 2000, dated 2005).
Like-named read-outs stand apart in the source and are kept apart here.

Key:
[1] = target: T1, Corynebacterium glutamicum ATCC 21253 phosphoenol pyruvate carboxylase (PEPC) (Corynebacterium glutamicum, UniProt P12880); assay: Phosphoenol pyruvate carboxylase assay (permeabilized cells), ATCC 21253; type: biochemical; conditions: no concentration stated
T1 sequence (P12880 1-919): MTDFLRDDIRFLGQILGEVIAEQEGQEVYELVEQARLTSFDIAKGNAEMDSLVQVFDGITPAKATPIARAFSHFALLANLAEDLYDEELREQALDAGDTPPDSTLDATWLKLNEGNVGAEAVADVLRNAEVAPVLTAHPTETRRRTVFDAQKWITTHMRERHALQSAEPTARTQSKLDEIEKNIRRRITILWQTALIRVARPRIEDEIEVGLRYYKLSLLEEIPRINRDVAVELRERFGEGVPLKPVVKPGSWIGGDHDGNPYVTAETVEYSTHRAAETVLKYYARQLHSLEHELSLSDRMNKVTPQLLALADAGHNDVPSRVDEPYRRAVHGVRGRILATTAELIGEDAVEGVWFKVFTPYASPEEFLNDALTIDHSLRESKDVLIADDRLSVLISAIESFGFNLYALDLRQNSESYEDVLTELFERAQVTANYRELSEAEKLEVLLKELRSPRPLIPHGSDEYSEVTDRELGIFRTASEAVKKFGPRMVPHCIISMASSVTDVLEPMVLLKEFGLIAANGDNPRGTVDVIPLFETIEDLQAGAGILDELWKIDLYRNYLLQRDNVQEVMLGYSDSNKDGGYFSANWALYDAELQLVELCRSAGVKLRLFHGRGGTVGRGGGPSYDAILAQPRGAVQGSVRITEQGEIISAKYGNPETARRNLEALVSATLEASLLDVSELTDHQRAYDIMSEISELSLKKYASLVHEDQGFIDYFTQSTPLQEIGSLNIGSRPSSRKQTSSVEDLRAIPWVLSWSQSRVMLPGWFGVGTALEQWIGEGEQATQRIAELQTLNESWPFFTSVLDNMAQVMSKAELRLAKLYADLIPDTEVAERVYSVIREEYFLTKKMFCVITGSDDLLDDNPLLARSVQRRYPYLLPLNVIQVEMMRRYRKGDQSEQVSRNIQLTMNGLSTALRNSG
Method: (§1) Pyruvate carboxylate and phosphoenol pyruvate carboxylate assays were performed with permeabilized cells prepared by the following method. Log phase cells were harvested by centrifugation for 10 min at 5000×g at 4° C. and washed with 20 ml of the ice-cold washing buffer (50 mM Tris/HCl [pH 6.3] containing 50 mM NaCl). The cell pellet was resuspended in an ice-cold Hepes buffer (100 mM Hepes [pH 7.5] containing 20% Glycerol) to reach a final concentration of 25 g dry cell weight/liter. Resuspended cells were permeabilized by adding 30 μl of a 10% Hexadecyltrimethyl-ammonium bromide (CTAB) (w/v) solution to 1 ml of cells to give a final concentration of 0.3% (CTAB)(v/v).
For determination of phosphoenol pyruvate carboxylase activity, the assay mixture contained 10 mM phosphoenol pyruvate, 14 mM KHCO3, 4 mM MgCl2, 50 μmole acetyl-CoA, 0.3 mg bovine serum albumin, 0.055 U citrate synthase and 50 mM sodium phosphate buffer ([pH 7.5] containing 0.1 mg 5,5′-Dithio-bis(2-nitrobenzoic acid) (DTNB)) in a final volume of 1 ml. The reaction was carried out in the same conditions described for the pyruvate carboxylase assay.
Aspartate inhibits phosphoenol pyruvate carboxylase (PEPC) activity. To determine the effect of aspartate on the activity of pyruvate carboxylase, aspartate was added at different concentrations in the spectrophotometer cuvette and enzyme activities were measured. […]

[2] = target: Corynebacterium glutamicum NRRL B-11474 (BF100) pyruvate carboxylase, feedback-resistant variant (M1V, E153D, A182S, A206S, H227R, A455G, D1120E), SEQ ID NO:2 (Corynebacterium glutamicum, UniProt H7C7K2, A182S/A206S/A455G/D1120E/E153D/H227R/M1V)
Method: as §1
The reaction was started at 30° C. with the addition of 10 μl of the permeabilized cell suspension, and the formation of DTNB-thiophenolate was followed over time at 412 nm. Relevant standards and controls were carried out in the same manner.
To account for the intrinsic loss of OAA during the experiment, a continuous assay was carried out by coupling the two-reaction assay to a one-reaction assay in presence of an excess of citrate synthase. The amount of permeabilized cells added in the assay was optimized to obtain a detectable activity, with the lowest possible background absorbency due to the presence of cells.
Pyruvate carboxylase activity was determined as a function of various concentrations of its substrates: pyruvate, bicarbonate and ATP (FIG. 3). Based on the data generated, the affinity constants of pyruvate carboxylase for its substrates were determined (Table 2).
To determine the effect of aspartate on the activity of pyruvate carboxylase, aspartate was added at different concentrations in the spectrophotometer cuvette and enzyme activities were measured. As a comparison, the same experiment was carried out with PEPC in ATCC 21253 (FIG. 5).
Pyruvate carboxylase activity was measured in the presence of different concentrations of acetyl-CoA (FIG. 6). […] The effect of acetyl-CoA on citrate synthase itself was studied also.

## N[C@@H](CC(=O)O)C(=O)O [aspartate, aspartic acid]
[1]
  inhibition of PEPC by aspartate: strongly inhibited
[2]; 0-30 mM aspartate
  effect of aspartate on pyruvate carboxylase activity: activated
[2]; 30-100 mM aspartate
  effect of aspartate on pyruvate carboxylase activity: inhibited
